Test results from patent US9000176B2, “Pyrazole derivatives, preparation method thereof, and composition for prevention and treatment of osteoporosis containing same” (Ewha University—Industry Collaboration Foundation, priority 2009, dated 2015).

The compounds below were run on generation of reactive oxygen species in the murine kidney membrane (assay: Lucigenin-based assay of reactive oxygen species generation in isolated kidney membrane). Details: 37° C. for 10 minutes, luminescence, compound 40, 10, 2.5, 0.625, 0 μM, read-out: EC50 (inhibition of generation of reactive oxygen species).
Format: biochemical, rat (Rattus norvegicus)
Experimental: A kidney was isolated from a rat (Rattus norvegicus) and washed with phosphate buffered saline (PBS). The tissue was soaked in 20 mL of PBS buffer containing a protease inhibitor (Aprotinin 1 μg/mL-USB 11388, Leupeptin 1 μg/mL-USB-18413), finely disrupted using a mixer, and then transferred to a 50 mL conical tube (SPL 50050), followed by centrifugation at 10000 g for 10 minutes (MF-600 plus, Hanil) to sediment the undisrupted tissue. The supernatant was separated and collected in a fresh tube. The tube was placed in ice and subjected to sonication about 4 times each cycle for 30 seconds until the supernatant became clear (Branson Digital Sonifier, Model CE Converter 102C). The supernatant was transferred to a high-speed centrifugation tube (Beckman 331372) and then centrifuged at 100000 g for 1 hour (Optima™ L-90 K Preparative Ultracentrifuge, SW41Ti rotor, Beckman). After the supernatant was discarded, the remaining pellet was washed once with cold PBS and dissolved in 500 μL of cold PBS containing a protease inhibitor to obtain a murine kidney membrane.
Reactive oxygen species generated in the thus-obtained kidney membrane was analyzed by a lucigenin-based assay.
Specifically, each of the compounds synthesized in Examples of the present invention (40 μM, 10 μM, 2.5 μM, 0.625 μM, and 0 μM) was placed in a luminescence assay microplate, and the isolated kidney membrane and lucigenin were sequentially added thereto, followed by incubation at 37° C. for 10 minutes. Then, the intensity of luminescence was measured in a luminometer (MicroLumatPlus LB96V Microplate Luminometer, Berthold) to assay the generation of reactive oxygen species in the murine kidney membrane, followed by calculating an EC50 value of the inventive compounds.

Structure (SMILES)	EC50 [nM]
CCCc1c(-c2ccccc2)nn(-c2ccccn2)c1O [Compound 78, 3-phenyl-4-propyl-1-(pyridin-2-yl)-1H-pyrazol-5-ol]	10000
Oc1cc(-c2ccc(-c3ccccc3Oc3ccccc3)cc2)nn1-c1ccccn1 [Compound 74, 3-(2′-phenoxybiphenyl-4-yl)-1-(pyridin-2-yl)-1H-pyrazol-5-ol]	400
CC(C)[Si](Oc1cc(-c2ccc(-c3ccc(Br)cc3)cc2)nn1-c1ccccn1)(C(C)C)C(C)C [Compound 51, 2-(3-(4′-bromobiphenyl-4-yl)-5-(triisopropylsilyloxy)-1H-pyrazol-1-yl)pyridine]	400
Oc1c(Cc2ccccc2)c(-c2ccccc2)nn1-c1ccccn1 [Compound 79, 4-benzyl-3-phenyl-1-(pyridin-2-yl)-1H-pyrazol-5-ol]	3000
Oc1cc(-c2cccc(-c3ccccc3)c2)nn1-c1ccccn1 [Compound 61]	400
CC(C)[Si](Oc1cc(-c2ccc(I)cc2)nn1-c1ccccn1)(C(C)C)C(C)C [Compound 20, 2-(3-(4-iodophenyl)-5-(triisoropylsilyloxy)-1H-pyrazol-1-yl)pyridine]	1500
Oc1cc(-c2cccc(-c3ccccc3Oc3ccccc3)c2)nn1-c1ccccn1 [Compound 65, 3-(2′-phenoxybiphenyl-3-yl)-1-(pyridin-2-yl)-1H-pyrazol-5-ol]	625
c1ccc(B(Oc2cc(-c3ccc(-c4ccccc4)cc3)nn2-c2ccccn2)c2ccccc2)cc1 [Compound 52, 2-(3-(biphenyl-4-yl)-5-(diphenylboryloxy)-1H-pyrazol-1-yl)pyridine]	500
Oc1cc(-c2ccccc2-c2ccc3c(c2)OCO3)nn1-c1ccccn1 [Compound 59, 3-(2-(benzo[d][1,3]dioxol-5-yl)phenyl)-1-(pyridin-2-yl)-1H-pyrazol-5-ol]	1400
Oc1cc(-c2ccc(-c3ccccc3)cc2)nn1-c1ncccn1 [Compound 75, 3-(biphenyl-4-yl)-1-(pyrimidin-2-yl)-1H-pyrazol-5-ol]	600
Oc1cc(-c2ccc(-c3ccc4c(c3)OCO4)cc2)nn1-c1ccccn1 [Compound 55, 3-(4-(benzo[d][1,3]-dioxol-5-yl)phenyl)-1-(pyridin-2-yl)-1H-pyrazol-5-ol]	500
Oc1cc(-c2cccc(-c3cccc(-c4ccccc4)c3)c2)nn1-c1ccccn1 [Compound 67, 3-(3′-phenylbiphenyl-3-yl)-1-(pyridin-2-yl)-1H-pyrazol-5-ol]	400
Oc1cc(-c2ccc(I)cc2)nn1-c1ncccn1 [Compound 19, 3-(4-iodophenyl)-1-(pyrimidin-2-yl)-1H-pyrazol-5-ol]	800
CC(C)(C)OC(=O)Oc1cc(-c2ccc(-c3ccccc3)cc2)nn1-c1ncccn1 [Compound 48, 3-(biphenyl-4-yl)-1-(pyrimidin-2-yl)-1H-pyrazol-5-yl tert-butyl carbonate]	1200

Further lines, results first:

EC50 [nM]	Structure (SMILES)
1300	CC(=O)Oc1cc(-c2ccc(Br)cc2)nn1-c1ccccn1 [Compound 26, 3-(4-bromophenyl)-1-(pyridin-2-yl)-1H-pyrazol-5-yl acetate]
1200	Oc1cc(-c2ccc(Br)cc2)nn1-c1ccccn1 [Compound 15, 3-(4-bromophenyl)-1-(pyridin-2-yl)-1H-pyrazol-5-ol]
2500	Oc1cc(-c2ccccc2I)nn1-c1ccccn1 [Compound 16, 3-(2-iodophenyl)-1-(pyridin-2-yl)-1H-pyrazol-5-ol]
700	Oc1cc(-c2cccc(I)c2)nn1-c1ccccn1 [Compound 17, 3-(3-iodophenyl)-1-(pyridin-2-yl)-1H-pyrazol-5-ol]
450	Oc1cc(-c2ccc(I)cc2)nn1-c1ccccn1 [Compound 18, 3-(4-iodophenyl)-1-(pyridin-2-yl)-1H-pyrazol-5-ol]
400	Oc1cc(-c2ccc(-c3ccccc3)cc2)nn1-c1ccccn1 [Compound 54, 3-(biphenyl-4-yl)-1-(pyridin-2-yl)-1H-pyrazol-5-ol]
2500	Oc1cc(-c2ccc(-c3ccc(Br)cc3)cc2)nn1-c1ccccn1 [Compound 72, 3-(4′-bromobiphenyl-4-yl)-1-(pyridin-2-yl)-1H-pyrazol-5-ol]
